According to patent publication US6274715A, “Tricyclic erythromycin derivatives” (priority 1997, dated 2001):
Converted amounts (≈) assume the structure as drawn.

How the values were obtained:
Format in all cases: cell-based
[1] = system: STREPTOCOCCUS PYOGENES 930; experiment: In vitro antibacterial activity, MIC, BHI agar dilution; conditions: S. pyogenes 930, unit assumed
[2] = system: STAPHYLOCOCCUS AUREUS CMX 553; experiment: as above; conditions: S. aureus CMX 553, unit assumed
[3] = system: EN[…] ATCC 8043; experiment: as above; conditions: E. faecium ATCC 8043, unit assumed
Procedure, shortened: (§1)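 MIC was read visually as the lowest drug concentration showing no growth, a slight haze or sparsely isolated colonies relative to a compound-free BHI plate. Plates held serial aqueous dilutions in BHI agar, were spot-inoculated with 1:100 (or 1:10) culture dilutions and incubated 20 to 24 hours at 35-37° C.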

[4] = system: STR[…] 508; experiment: as above; conditions: S. agalactiae CMX 508, unit assumed
Procedure, shortened: as §1

[5] = system: M[…] ATCC 4698; experiment: as above; conditions: M. luteus ATCC 4698, unit assumed
Procedure, shortened: as §1

[6] = system: M[…] ATCC 9341; experiment: as above; conditions: M. luteus ATCC 9341, unit assumed
Procedure, shortened: as §1

[7] = system: STAPHYLOCOCCUS AUREUS A5177; experiment: as above; conditions: S. aureus A5177, unit assumed
[8] = system: PSEUDOMONAS AERUGINOSA 5007; experiment: as above; conditions: P. aeruginosa 5007, unit assumed
[9] = system: PSEUDOMONAS AERUGINOSA K799/61; experiment: as above; conditions: P. aeruginosa K799/61, unit assumed
[10] = system: ESCHERICHIA COLI SS; experiment: as above; conditions: E. coli SS, unit assumed
[11] = system: STAPHYLOCOCCUS AUREUS NCTC10649M; experiment: as above; conditions: S. aureus NCTC10649M, unit assumed
[12] = system: ESCHERICHIA COLI DC-2; experiment: as above; conditions: E. coli DC-2, unit assumed
[13] = system: PSEUDOMONAS AERUGINOSA BMH10; experiment: as above; conditions: P. aeruginosa BMH10, unit assumed
[14] = system: PSEUDOMONAS CEPACIA 296I; experiment: as above; conditions: P. cepacia 296I, unit assumed
[15] = system: ENTEROBACTER AEROGENES ATCC 13048; experiment: as above; conditions: E. aerogenes ATCC 13048, unit assumed
[16] = system: PROVIDENCIA STUARTII CMX 640; conditions: P. stuartii CMX 640; BHI agar; unit assumed
[17] = system: MYCOBACTERIUM SMEGMATIS ATCC 114; experiment: In vitro antibacterial activity, MIC, BHI agar dilution; conditions: M. smegmatis ATCC 114, unit assumed
[18] = system: PSEUDOMONAS AERUGINOSA DPHD-5263; experiment: as above; conditions: P. aeruginosa DPHD-5263, unit assumed
[19] = system: PSEUDOMONAS AERUGINOSA K799/WT; experiment: as above; conditions: P. aeruginosa K799/WT, unit assumed
[20] = system: ESCHERICHIA COLI H560; experiment: as above; conditions: E. coli H560, unit assumed
[21] = system: ESCHERICHIA COLI KNK 437; conditions: E. coli KNK 437; BHI agar; unit assumed
[22] = system: STAPHYLOCOCCUS EPIDERMIDIS 3519; conditions: S. epidermidis 3519; BHI agar; unit assumed
[23] = system: KLEBSIELLA PNEUMONIAE ATCC 8045; experiment: In vitro antibacterial activity, MIC, BHI agar dilution; conditions: K. pneumoniae ATCC 8045, unit assumed
[24] = system: STAPHYLOCOCCUS AUREUS A-5278; experiment: as above; conditions: S. aureus A-5278, unit assumed
[25] = system: STREPTOCOCCUS BOVIS A-5169; experiment: as above; conditions: S. bovis A-5169, unit assumed
[26] = system: STAPHYLOCOCCUS AUREUS 1775; experiment: as above; conditions: S. aureus 1775, unit assumed
[27] = system: CANDIDA ALBICANS CCH 442; experiment: as above; conditions: C. albicans CCH 442, unit assumed
[28] = system: STREPTOCOCCUS PYOGENES PIU 2548; experiment: as above; conditions: S. pyogenes PIU 2548, unit assumed
[29] = system: STAPHYLOCOCCUS AUREUS CMX 642A; experiment: as above; conditions: S. aureus CMX 642A, unit assumed
[30] = system: ESCHERICHIA COLI JUHL; conditions: E. coli JUHL; BHI agar; unit assumed
[31] = system: STAPHYLOCOCCUS AUREUS ATCC 6538P; experiment: In vitro antibacterial activity, MIC, BHI agar dilution; conditions: S. aureus ATCC 6538P, 35-37° C., 20 to 24 hours, unit assumed
[32] = system: STREPTOCOCCUS PYOGENES EES61; experiment: as above; conditions: S. pyogenes EES61, unit assumed
[33] = system: PSEUDOMONAS AERUGINOSA DPHD-2862; experiment: as above; conditions: P. aeruginosa DPHD-2862, unit assumed

| SMILES | MIC [1] [µg/mL] | MIC [2] [µg/mL] | MIC [3] [µg/mL] | MIC [4] [µg/mL] | MIC [5] [µg/mL] | MIC [6] [µg/mL] | MIC [7] [µg/mL] | MIC [8] [µg/mL] | MIC [9] [µg/mL] | MIC [10] [µg/mL] | MIC [11] [µg/mL] | MIC [12] [µg/mL] | MIC [13] [µg/mL] | MIC [14] [µg/mL] | MIC [15] [µg/mL] | MIC [16] [µg/mL] | MIC [17] [µg/mL] | MIC [18] [µg/mL] | MIC [19] [µg/mL] | MIC [20] [µg/mL] | further results |
| --- | --- | --- | --- | --- | --- | --- | --- | --- | --- | --- | --- | --- | --- | --- | --- | --- | --- | --- | --- | --- | --- |
| CC[C@H]1OC(=O)[C@H](C)C(=O)[C@H](C)[C@@H](O[C@@H]2O[C@H](C)C[C@H](N(C)C)[C@H]2O)[C@](C)(OC)C[C@@H](C)C2=NC3CN(CCc4ccc(NC(C)=O)cc4)CC3N3C(=O)O[C@@]1(C)[C@H]3[C@H]2C (stereo partly drawn) [Example 122] | 100 (≈ 119 µM) | 0.78 (≈ 0.928 µM) | 0.78 (≈ 0.928 µM) | 0.1 (≈ 0.119 µM) | 1.56 (≈ 1.86 µM) | 0.05 (≈ 0.0595 µM) | 0.39 (≈ 0.464 µM) | > 100 | 0.78 (≈ 0.928 µM) | 0.78 (≈ 0.928 µM) | 0.78 (≈ 0.928 µM) | 100 (≈ 119 µM) | > 100 | > 100 | 100 (≈ 119 µM) | > 100 | 25 (≈ 29.8 µM) | > 100 | > 100 | 50 (≈ 59.5 µM) | MIC [21]: 50 µg/mL (≈ 59.5 µM); MIC [22]: 0.78 µg/mL (≈ 0.928 µM); MIC [23]: > 100 µg/mL; MIC [24]: > 100 µg/mL; MIC [25]: 0.02 µg/mL (≈ 0.0238 µM); MIC [26]: > 100 µg/mL; MIC [27]: > 100 µg/mL; MIC [28]: 6.2 µg/mL (≈ 7.38 µM); MIC [29]: 0.78 µg/mL (≈ 0.928 µM); MIC [30]: 100 µg/mL (≈ 119 µM); MIC [31]: 0.39 µg/mL (≈ 0.464 µM); MIC [32]: 0.02 µg/mL (≈ 0.0238 µM); MIC [33]: > 100 µg/mL |
| CC[C@H]1OC(=O)[C@H](C)C(=O)[C@H](C)[C@@H](O[C@@H]2O[C@H](C)C[C@H](N(C)C)[C@H]2O)[C@](C)(OC)C[C@@H](C)C2=NC3CN(C=O)CC3N3C(=O)O[C@@]1(C)[C@H]3[C@H]2C (stereo partly drawn) [Example 124] | > 100 | 0.78 (≈ 1.1 µM) | 0.2 (≈ 0.283 µM) | 0.1 (≈ 0.141 µM) | 0.39 (≈ 0.552 µM) | 0.1 (≈ 0.141 µM) | 1.56 (≈ 2.21 µM) | > 100 | 0.78 (≈ 1.1 µM) | 0.78 (≈ 1.1 µM) | 0.78 (≈ 1.1 µM) | 100 (≈ 141 µM) | > 100 | > 100 | > 100 | > 100 | 25 (≈ 35.4 µM) | > 100 | 100 (≈ 141 µM) | 50 (≈ 70.7 µM) | MIC [21]: 100 µg/mL (≈ 141 µM); MIC [22]: 3.1 µg/mL (≈ 4.39 µM); MIC [23]: > 100 µg/mL; MIC [24]: > 100 µg/mL; MIC [25]: 0.05 µg/mL (≈ 0.0707 µM); MIC [26]: > 100 µg/mL; MIC [27]: > 100 µg/mL; MIC [28]: 3.1 µg/mL (≈ 4.39 µM); MIC [29]: 0.78 µg/mL (≈ 1.1 µM); MIC [30]: 100 µg/mL (≈ 141 µM); MIC [31]: 0.78 µg/mL (≈ 1.1 µM); MIC [32]: 0.02 µg/mL (≈ 0.0283 µM); MIC [33]: > 100 µg/mL |
| CC[C@H]1OC(=O)[C@H](C)C(=O)[C@H](C)[C@@H](O[C@@H]2O[C@H](C)C[C@H](N(C)C)[C@H]2O)[C@](C)(OC)C[C@@H](C)C2=NC3CN(CC(OC)OC)CC3N3C(=O)O[C@@]1(C)[C@H]3[C@H]2C (stereo partly drawn) [Example 127] | > 100 | 1.56 (≈ 2.03 µM) | 0.39 (≈ 0.508 µM) | 0.2 (≈ 0.261 µM) | 1.56 (≈ 2.03 µM) | 0.39 (≈ 0.508 µM) | 1.56 (≈ 2.03 µM) | > 100 | 3.1 (≈ 4.04 µM) | 1.56 (≈ 2.03 µM) | 1.56 (≈ 2.03 µM) | > 100 | > 100 | > 100 | > 100 | > 100 | 25 (≈ 32.6 µM) | > 100 | > 100 | > 100 | MIC [21]: > 100 µg/mL; MIC [22]: 1.56 µg/mL (≈ 2.03 µM); MIC [23]: > 100 µg/mL; MIC [24]: > 100 µg/mL; MIC [25]: 0.1 µg/mL (≈ 0.13 µM); MIC [26]: > 100 µg/mL; MIC [27]: > 100 µg/mL; MIC [28]: 1.56 µg/mL (≈ 2.03 µM); MIC [29]: 3.1 µg/mL (≈ 4.04 µM); MIC [30]: > 100 µg/mL; MIC [31]: 3.1 µg/mL (≈ 4.04 µM); MIC [32]: 0.1 µg/mL (≈ 0.13 µM); MIC [33]: > 100 µg/mL |
